Common to all, as to test: Chemosensitivity, 96 h continuous exposure, MTT assay
What all share (format): cell-based, human
A general note: Tetrazolium dyes change colour on reduction, which living cells bring about.

For one assay, the system named is MiaPaCa2. The note with it: for IC50: MiaPaCa2, 96 h, MTT; for SI (ARPE19): mean IC50 ARPE-19 / mean IC50 MiaPaCa2. From the text:
(§1) All cell lines were purchased from and maintained as monolayers as described by the American Type Culture Collection with the exception of the p53^+/+ and p53^−/− isogenic clones of HCT116 human colorectal adenocarcinoma cells which were a kind gift from Professor Bert Vogelstein[54]. GBM1 cells were established from a primary GBM tumour by Heiko Wurdak and colleagues[32],[33]. Non-cancerous adult brain neural progenitor (NP1) cells were derived from a patient undergoing surgery to treat epilepsy[32],[33]. Cell culture and growth media for NP1 and GBM1 cells were as described[32],[33]. The response of cells following a continuous 96-h exposure to test compounds and platinates was determined using the MTT assay. Potency was recorded as the IC50 and the selectivity index (SI) was defined as the ratio of IC50 values for non-cancer to cancer cell lines with values >1 representing selectivity for cancer cells as opposed to non-cancer cells.
(§2) All cell lines used were maintained at low passage in antibiotic-free media. HT29, DLD-1, HCT116 p53^+/+ and HCT116 p53^−/− are all colorectal adenocarcinoma cell lines derived from different individuals and harbour different combinations of oncogenic lesions (except for the HCT116 isogenic cancer cell clones that are genetically identical except for p53 status). PSN-1, BxPC-3 and MiaPaCa2 are pancreatic carcinoma cell lines and A549 and H460 are lung carcinoma cell lines. HT29, DLD-1, PSN-1, BxPC-3, A549 and H460 cell lines were cultured in RPMI-1640 growth media (Sigma) containing 2 mM L-glutamine, 1 mM sodium pyruvate and 10% foetal bovine serum (FBS). HCT116 (p53^+/+ and p53^−/−) and MiaPaCa2 cell lines were cultured in Dulbecco’s Modified Eagle’s Medium (Sigma), 2 mM L-glutamine and 10% FBS. The ARPE-19 retinal epithelial non-cancer cell line was cultured in DMEM/F12 media (Gibco), 2 mM L-glutamine, 1 mM sodium pyruvate and 10% FBS. The MCF10A non-cancerous human breast epithelial cell line was cultured in Minimal Essential Media Eagle (Sigma), 2 mM L-glutamine, 1 mM sodium pyruvate, 10% FBS and 1x non-essential amino acids (NEAA). NP1 and GBM1 cells were cultured on plasticware coated with poly-L-ornithine (5 µg/ml) and laminin (2.4 µg/ml)[32],[33]. NP1 cells were grown in DMEM/F12 media (Gibco) supplemented with 5% FBS, 20 ng/ml hFGF, 20 ng/ml rhEGF, 0.5x B-27 supplement (Gibco), 0.5x N-2 supplement (Gibco) and 1x GLUTAMAX (Gibco). GBM1 cells were cultured in Neurobasal media (Gibco) supplemented with 40 ng/ml hFGF, 40 ng/ml rhEGF, 0.5x B-27 supplement (Gibco) and 0.5x N-2 supplement (Gibco).
(§3) [L2(Metal)3]^6+ and all the other self-assembling complexes were freshly formed by adding DMSO to individual components and mixing together by pipetting. These were then further diluted in cell culture media such that the final DMSO concentration that cells were exposed to was 0.2% (vehicle control). Cisplatin, oxaliplatin and carboplatin were dissolved in phosphate buffered saline. Cell lines were seeded into 96 well plates at 2 × 10^3 cells per well and incubated overnight at 37 °C. GBM1 cancer stem-like cells were seeded at 3 × 10^3 cells per well and NP1 neural progenitors were seeded at 1.5 × 10^3 cells per well. The following day, media was removed and replaced with fresh media containing test compounds at a range of concentrations. Cells were incubated with test compounds for a further 96 h after which the media was removed and replaced with fresh media (200 μl/well). MTT was added (20 μl at 5 mg/ml) and cells were incubated for a further 4 h. Media and MTT were removed and formazan crystals were dissolved in 150 μl of DMSO and the absorbance of the resulting solution determined at 540 nm. Dose response curves were constructed, and the concentration required to reduce cell growth by 50% (IC50) determined.

Another assay relates to HCT116 p53+/+. The note with it: for SI (ARPE19): mean IC50 ARPE-19 / mean IC50 HCT116 p53+/+; for Selectivity index (ARPE19): IC50 ARPE-19 / IC50 HCT116 p53+/+.
Text: as §1, §2, §3

Another assay has as its system HCT116 p53-/-. As to conditions: for SI (ARPE19): mean IC50 ARPE-19 / mean IC50 HCT116 p53-/-; for Selectivity index (ARPE19): IC50 ARPE-19 / IC50 HCT116 p53-/-.
Text: as §1, §2, §3

Another assay concerns ARPE-19 non-cancer cells.
Text: as §1, §2, §3

[1] abbreviates: individual run, read-out: IC50 values for each replicate.
The mark [2] stands for this setting: mean of at least 3 independent experiments, read-out: Mean IC50.
Setting [3] is: HCT116 p53+/+, 96 h, MTT, individual run, read-out: IC50 values for each replicate.
Where [4] appears, read: HCT116 p53+/+, 96 h, MTT, mean of at least 3 independent experiments, read-out: Mean IC50.
[5] abbreviates: HCT116 p53-/-, 96 h, MTT, individual run, read-out: IC50 values for each replicate.
[6] abbreviates: HCT116 p53-/-, 96 h, MTT, mean of at least 3 independent experiments, read-out: Mean IC50.
Setting [7] is: ARPE-19, 96 h, MTT, individual run, read-out: IC50 values for each replicate.
Setting [8] is: ARPE-19, 96 h, MTT, mean of at least 3 independent experiments, read-out: Mean IC50.
The mark [9] stands for this setting: HCT116 p53+/+, individual replicate experiments, read-out: IC50 values.
The mark [10] stands for this setting: HCT116 p53+/+, read-out: Mean IC50 values.
Setting [11] is: HCT116 p53-/-, individual replicate experiments, read-out: IC50 values.
[12] abbreviates: HCT116 p53-/-, read-out: Mean IC50 values.
Where [13] appears, read: ARPE19, individual replicate experiments, read-out: IC50 values.
The mark [14] stands for this setting: ARPE-19 non-cancer, read-out: Mean IC50 values.

Where “and” joins values, the source holds several entries; their conditions need not be identical. Equal values may be shown once. Read-outs that look alike come from different tables or passages of the source.

The term IC50 denotes the point on the concentration scale where inhibition reaches its midpoint. Take `N.N.[Cl][Pt][Cl]` [Cisplatin, cisplatin, reference compound]: the IC50 with MiaPaCa2 (setting [1]) is 3.69 µM and 2.84 µM and 4.32 µM; in the assay on MiaPaCa2 (setting [2]), 3.62 µM; in the assay on HCT116 p53+/+ (setting [3]) it was 2.84 µM and 3.35 µM and 3.58 µM; in the assay with HCT116 p53+/+ (setting [4]), 3.26 µM; in the assay with HCT116 p53-/- (setting [5]) it was 7.14 µM and 7.16 µM and 8.27 µM; in the assay on HCT116 p53-/- (setting [6]) it was 7.52 µM. Moreover, the IC50 in the assay with ARPE-19 non-cancer cells (setting [7]) was 6.07 µM and 7.48 µM and 5.69 µM; in the assay on ARPE-19 non-cancer cells (setting [8]), 6.41 µM. Further, the entries for the “SI (ARPE19)” value with MiaPaCa2, in the assay on HCT116 p53+/+ and in the assay on HCT116 p53-/- were 1.771, 1.966 and 0.852, respectively.
Turning to `O=C1[O][Pt]2([NH][C@@H]3CCCC[C@H]3[NH]2)[O]C1=O` [Oxaliplatin, oxaliplatin, reference compound], the IC50 in the assay with MiaPaCa2 (setting [1]) is 5.23 µM and 7.06 µM and 7.02 µM; with MiaPaCa2 (setting [2]), 6.44 µM; in the assay with HCT116 p53+/+ (setting [3]), 1.05 µM and 0.89 µM and 0.84 µM; in the assay with HCT116 p53+/+ (setting [4]), 0.93 µM; in the assay on HCT116 p53-/- (setting [5]), 5.46 µM and 2.46 µM and 3.06 µM; with HCT116 p53-/- (setting [6]) it was 3.67 µM. Besides, the IC50 in the assay on ARPE-19 non-cancer cells (setting [7]) was 2.83 µM and 3.1 µM and 3.39 µM; with ARPE-19 non-cancer cells (setting [8]), 3.12 µM. For the same compound, the “SI (ARPE19)” value was found to be 0.484 in the assay with MiaPaCa2, 3.355 in the assay with HCT116 p53+/+ and 0.850 in the assay with HCT116 p53-/-.
Consider `[Cu+2].c1ccc(-c2csc(NCCN(CCNc3nc(-c4ccccn4)cs3)CCNc3nc(-c4ccccn4)cs3)n2)nc1` [[LCu]2+], for which the IC50 in the assay on HCT116 p53+/+ (setting [9]) is 0.512 µM and 0.583 µM and 0.251 µM; with HCT116 p53+/+ (setting [10]), 0.449 µM; with HCT116 p53-/- (setting [11]), 0.049 µM and 0.045 µM and 0.083 µM; in the assay with HCT116 p53-/- (setting [12]), 0.059 µM; with ARPE-19 non-cancer cells (setting [13]), 5.93 µM and 5.5 µM and 6.33 µM; in the assay on ARPE-19 non-cancer cells (setting [14]), 5.92 µM. Further, the figures for the “Selectivity index (ARPE19)” value in the assay on HCT116 p53+/+ and in the assay with HCT116 p53-/- were 13.19 and 100.09, respectively.
Take `c1ccc(-c2csc(NCCN(CCNc3nc(-c4ccccc4)cs3)CCNc3nc(-c4ccccc4)cs3)n2)cc1` [L]: the 50% inhibitory concentration (IC50) in the assay with HCT116 p53+/+ (setting [9]) is 0.173 µM and 0.524 µM and 0.141 µM; in the assay with HCT116 p53+/+ (Homo sapiens, HCT-116, HCT116 p53+/+, read-out: Mean IC50 values) it was 0.279 µM; in the assay on HCT116 p53-/- (setting [11]) it was 0.074 µM and 0.081 µM; in the assay with HCT116 p53-/- (Homo sapiens, HCT-116, HCT116 p53-/-, individual replicate experiments, read-out: IC50 values), 0.054 µM; in the assay on HCT116 p53-/- (Homo sapiens, HCT-116, HCT116 p53-/-, read-out: Mean IC50 values), 0.07 µM; in the assay on ARPE-19 non-cancer cells (setting [13]), 4.96 µM and 6.38 µM. The IC50 in the assay with ARPE-19 non-cancer cells (Homo sapiens, ARPE-19, ARPE19, individual replicate experiments, read-out: IC50 values) worked out at 4.89 µM; in the assay with ARPE-19 non-cancer cells (Homo sapiens, ARPE-19, ARPE-19 non-cancer, read-out: Mean IC50 values), 5.41 µM. In addition, the “Selectivity index (ARPE19)” value was 19.369 and 19.36 in the assay with HCT116 p53+/+; 77.506 with HCT116 p53-/-.
Consider `[Zn+2].c1ccc(-c2csc(NCCN(CCNc3nc(-c4ccccn4)cs3)CCNc3nc(-c4ccccn4)cs3)n2)nc1` [[LZn]2+], for which the IC50 with HCT116 p53+/+ (setting [9]) is 0.483 µM and 0.549 µM and 0.244 µM; in the assay with HCT116 p53+/+ (setting [10]), 0.425 µM; with HCT116 p53-/- (setting [11]) it was 0.054 µM and 0.063 µM and 0.087 µM; with HCT116 p53-/- (setting [12]), 0.068 µM; in the assay with ARPE-19 non-cancer cells (setting [13]), 5.39 µM and 4.76 µM and 5.09 µM; in the assay on ARPE-19 non-cancer cells (setting [14]) it was 5.08 µM. For the same compound, the “Selectivity index (ARPE19)” value with HCT116 p53+/+ stood at 11.94; with HCT116 p53-/- it was 74.47.
For the compound `N.N.O=C([O-])C1(C(=O)[O-])CCC1.[Pt+2]` [Carboplatin, carboplatin, reference compound], the IC50 was 30.3 µM and 44.7 µM and 31.8 µM in the assay on MiaPaCa2 (setting [1]); 35.6 µM in the assay on MiaPaCa2 (setting [2]); 43.3 µM and 21 µM and 32.9 µM in the assay on HCT116 p53+/+ (setting [3]); 32.4 µM in the assay with HCT116 p53+/+ (setting [4]); 45.8 µM and 28.2 µM and 33.1 µM in the assay on HCT116 p53-/- (setting [5]); 35.7 µM with HCT116 p53-/- (setting [6]). Also, the IC50 was 87.6 µM and 79 µM and 66.6 µM in the assay on ARPE-19 non-cancer cells (setting [7]); 77.7 µM in the assay on ARPE-19 non-cancer cells (setting [8]). The “SI (ARPE19)” value with MiaPaCa2 was determined as 2.184; in the assay on HCT116 p53+/+, 2.401; with HCT116 p53-/-, 2.177.

Values taken from publication PMC8222254, “Self-assembly of an anion receptor with metal-dependent kinase inhibition and potent in vitro anti-cancer properties” (Nature Communications, 2021).
